Data as given in patent publication US6914045B2, “Glycopeptide antibiotics” (Wyeth Holdings Corporation, priority 2001, dated 2005).
Values after ≈ are worked out from the molar mass of the structure shown.

Assays:
Assay in all cases: in vitro antibacterial evaluation, MIC by broth dilution
Assay type in all cases: cell-based
[1] = system: Staphylococcus sp.; settings: broth dilution, 18 hours at 35° C.; for MIC Staphylococcus aureus (ATCC 29213): strain ATCC 29213; for MIC Staphylococcus aureus (GC 1131): strain GC 1131; for MIC Staphylococcus aureus (GC 4535): strain GC 4535; for MIC Staphylococcus aureus-SMITH (GC 4536): strain GC 4536
Experimental: (§1) Methods for in vitro Antibacterial Evaluation (Table 1)
(§2) The minimum inhibitory concentration (MIC), the lowest concentration of the antibiotic which inhibits growth of the test organism, is determined by the broth dilution method using Muller-Hinton II […] (Baltimore Biological Laboratories) following the recommendations of the National Committee for Clinical Laboratory Standards [Methods for dilution antimicrobial susceptibility tests for bacteria that grow aerobically, approved standard M7-A2, National Committee for Clinical Laboratory Standards, Villanova, Pa.].
(§3) An inoculum level of 5×10^5 CFU/mL, and a range of antibiotic concentrations (64-0.06 μg/mL) is used. […] The test organisms include a spectrum of Gram-positive bacteria comprised of Staphylococcus sp., Streptococcus sp. and Enterococcus sp. These organisms include recent clinical isolates that are resistant to methicillin, penicillin and/or vancomycin.

[2] = system: Enterococcus sp.; settings: broth dilution, 18 hours at 35° C.
Experimental: as §1, §2, §3

[3] = system: Escherichia coli; settings: 18 hours at 35° C.
Experimental: as §2, §3

[4] = Enterococcus faecalis (ATCC 29212)
[5] = Enterococcus faecalis (GC 2242)
[6] = Enterococcus faecalis (GC 4552)

Compound	MIC Coagulase Negative Staphylococcus (GC 4537) [1]	MIC Coagulase Negative Staphylococcus (GC 4538) [1]	MIC Coagulase Negative Staphylococcus (GC 4547) [1]	MIC Coagulase Negative Staphylococcus (GC 4537) ([1]; strain GC 4537)	MIC Coagulase Negative Staphylococcus (GC 4538) ([1]; strain GC 4538)	MIC Coagulase Negative Staphylococcus (GC 4547) ([1]; strain GC 4547)	MIC Staphylococcus aureus (ATCC 29213) [1]	MIC Staphylococcus aureus (GC 1131) [1]	MIC Staphylococcus aureus (GC 4535) [1]	MIC Staphylococcus aureus-SMITH (GC 4536) [1]	MIC Enterococcus faecalis (ATCC 29212) [2, 4]	MIC Enterococcus faecalis (GC 2242) [2, 5]	MIC Enterococcus faecalis (GC 4552) [2, 6]	MIC Enterococcus faecalis (ATCC 29212) [2]	MIC Enterococcus faecalis (GC 2242) [2]	MIC Enterococcus faecalis (GC 4552) [2]	MIC Escherichia coli (GC 4559) [3]	MIC Escherichia coli (GC 4560) [3]
CC(c1ccccc1)C1NC(=O)CNC(=O)C(CO)NC(=O)C(C(O)C2CNC(=N)N2C2OC(CO)C(O)C(O)C2O)NC(=O)C(C(O)C2CNC(=N)N2)NC(=O)C(Cc2ccc(OC3OC(CO)C(OC4OC(COC(=O)Cc5ccccc5)C(O)C(O)C4O)C(O)C3O)cc2)NC1=O (stereo not drawn) [Example 98c]	2 µg/mL (≈ 1.42 µM)	1 µg/mL (≈ 0.708 µM)	1 µg/mL (≈ 0.708 µM)	2 µg/mL (≈ 1.42 µM)	1 µg/mL (≈ 0.708 µM)	1 µg/mL (≈ 0.708 µM)	2 µg/mL (≈ 1.42 µM)	2 µg/mL (≈ 1.42 µM)	4 µg/mL (≈ 2.83 µM)	2 µg/mL (≈ 1.42 µM)	16 µg/mL (≈ 11.3 µM)	8 µg/mL (≈ 5.66 µM)	16 µg/mL (≈ 11.3 µM)	16 µg/mL (≈ 11.3 µM)	8 µg/mL (≈ 5.66 µM)	16 µg/mL (≈ 11.3 µM)	64 µg/mL (≈ 45.3 µM)	0.5 µg/mL (≈ 0.354 µM)
CCCCCCC(=O)OCC1OC(N2C(=N)NCC2C(O)C2NC(=O)C(C(O)C3CNC(=N)N3)NC(=O)C(Cc3ccc(OC4OC(CO)C(OC5OC(CO)C(O)C(O)C5O)C(O)C4O)cc3)NC(=O)C(C(C)c3ccccc3)NC(=O)CNC(=O)C(CO)NC2=O)C(O)C(O)C1O (stereo not drawn) [Example 97, Cyclo[glycyl-β-methylphenylalanyl-O-(4-O-hexopyranosylhexolpyranosyl)tyrosyl-3-(2-iminoimidazolidin-4-yl)seryl-3-[3-(6-O-heptanoylhexopyranosyl)-2-iminoimidazolidin-4-yl]seryl-seryl]]	>64 µg/mL	>64 µg/mL	>64 µg/mL	>64 µg/mL	>64 µg/mL	>64 µg/mL	>64 µg/mL	>64 µg/mL	>64 µg/mL	>64 µg/mL	>64 µg/mL	>64 µg/mL	>64 µg/mL	>64 µg/mL	>64 µg/mL	>64 µg/mL	>64 µg/mL	2 µg/mL (≈ 1.42 µM)
